Where a name gives a salt, the structure may show the parent alone. Read-outs that look alike come from different tables or passages of the source.
Columns and labels:
[1] = tested on: non-insulin-dependent diabetes induced in rats by Streptozotocin; experiment: Antidiabetic activity in the Nostz rat (non-insulin-dependent diabetes induced by neonatal streptozotocin), glycaemia after oral treatment; type: in vivo; details: diabetic rats, blood 2 h after last administration; for change in vivo at 20 mg/kg: 20 mg/kg/D oral; for change in vivo at 200 mg/kg: 200 mg/kg/D oral
Protocol: Study of the Antidiabetic Activity in the Nostz Rat
The antidiabetic activity of the compounds of formula (I) administered orally was determined on an experimental model of non-insulin-dependent diabetes induced in rats by Streptozotocin.
The non-insulin-dependent diabetes model is obtained in rats by neonatal injection (on the day of birth) of streptozotocin.
The diabetic rats used were 8 weeks old. The animals were kept, from the day of their birth to the day of the experiment, in an animal house at a controlled temperature of 21 to 22° C. and subjected to a fixed cycle of light (from 7 am to 7 pm) and darkness (from 7 pm to 7 am). Their diet consisted of a maintenance diet, water and food were provided “ab libitum”, with the exception of the 2 hours of fasting preceding the tests when the food is withdrawn (postabsorptive state).
The rats were treated by the oral route for one (D1) or four (D4) days with the product to be tested. Two hours after the last administration of the product and 30 minutes after anaesthetizing the animals with sodium pentobarbital (Nembutal a), 300 μl of blood sample are collected from the end of the tail.
By way of example, results obtained are assembled in Table III.

[2] = 24 h, 1 day of treatment, read-out: percentage variation of glycaemia at D1 relative to D0
[3] = 96 h, 4 days of treatment, read-out: percentage variation of glycaemia at D4 relative to D0

melting point [°C]	Compound	change in vivo at 20 mg/kg [1, 2] [%]	change in vivo at 200 mg/kg [1, 2] [%]	change in vivo at 20 mg/kg [1, 3] [%]	change in vivo at 200 mg/kg [1, 3] [%]
> 260	CC(CCC(=O)O)[C@H]1CCC2C3CCC4CC5(CC[C@]4(C)C3CC[C@@]21C)N=C(N)NC(N(C)C)=N5 (stereo partly shown) (as salt: HCl)	–	–	–	–
218 to 220	CCC1N=C(N)NC(N(C)C)=N1 (stereo not shown) (as salt: HCl) [Compound 1, 2-amino-3,6-dihydro-4-dimethylamino-6-ethyl-1,3,5-triazine hydrochloride]	–	–	–	–
200 to 202	CC1N=C(N(C)C)NC(N(C)C)=N1 (as salt: HCl) [Compound 2, 2,4-bisdimethylamino-3,6-dihydro-6-methyl-1,3,5-triazine hydrochloride]	–	–	–	–
243 to 245	CN(C)C1=NC2(CCCCC2)N=C(N)N1 (as salt: HCl) [Compound 4]	–	–	–	–
150 to 152	CN(C)C1=NC(C)(CCCO)N=C(N)N1 (stereo not shown) (as salt: HCl) [Compound 7]	–	–	–	–
124 to 126	C=CCNC1=NC(C)(C)N=C(N(C)C)N1 (as salt: HCl) [Compound 8]	–	–	–	–
149 to 151	CC(C)NC1=NC(C)(C)N=C(N(C)C)N1 (as salt: HCl) [Compound 9]	–	–	–	–
239 to 241	CN(C)C1=NC(c2ccccc2)N=C(N)N1 (stereo not shown) (as salt: HCl) [Compound 10]	–	–	–	–
221 to 223	COc1ccc(C2N=C(N)NC(N(C)C)=N2)cc1 (stereo not shown) (as salt: HCl) [Compound 11]	–	–	–	–
251 to 253	CN(C)C1=NC(c2ccc(O)cc2)N=C(N)N1 (stereo not shown) (as salt: HCl) [Compound 12]	–	–	–	–
250 to 252	CN(C)C1=NC(C)(C)N=C(N(C)C)N1 (as salt: HCl) [Compound 15]	–	–	–	–
> 260	CN(C)C1=NC(C)(C)N=C(N2CCCC2)N1 (as salt: HCl) [Compound 17]	–	–	–	–
> 260	CNC1=NC2(CCCCC2)N=C(N(C)C)N1 (as salt: HCl) [Compound 22]	–	–	–	–
248 to 250	CCNC1=NC2(CCCCC2)N=C(N(C)C)N1 (as salt: HCl) [Compound 23]	–	–	–	–
91 to 92	C=CCNC1=NC(C)N=C(N(C)C)N1 (stereo not shown) (as salt: HCl) [Compound 26]	–	–	–	–
> 260	CN(C)C1=NC2(CCC(OCc3ccccc3)CC2)N=C(N)N1 (stereo not shown) (as salt: HCl) [Compound 27]	–	–	–	–
> 250	CN(C)C1=NC2(CCC(O)CC2)N=C(N)N1 (stereo not shown) (as salt: HCl) [Compound 28]	–	–	–	–
207 to 209	CN(C)C1=NC2(CCCC2)N=C(N)N1 (as salt: HCl) [Compound 31]	–	–	–	–
> 260	CN(C)C1=NC2(CCOCC2)N=C(N)N1 (as salt: HCl) [Compound 38]	–	–	–	–
225 to 227	CN(C)C1=NC(c2ccco2)N=C(N)N1 (stereo not shown) (as salt: HCl) [Compound 40]	–	–	–	–
> 260	CN(C)C1=NC(C(C)(C)C)N=C(N)N1 (stereo not shown) (as salt: HCl) [Compound 42]	–	–	–	–
172 to 174	CCNC1=NC(C)(C)N=C(N(C)C)N1 (as salt: fumarate) [Compound 14]	–	–	–	–
170 to 180	NC1=NC2(CCCCC2)N=C(NCCc2ccccc2)N1 (as salt: salt) [Compound 20]	–	–	–	–
> 140	CC1N=C(N(C)C)NC(N2CCCC2)=N1 (stereo not shown) (as salt: salt) [Compound 21]	–	–	–	–
140 to 144	CCC1(CC)N=C(N)NC(N(C)C)=N1 (as salt: salt) [Compound 30]	–	–	–	–

melting point [°C]	Compound	change in vivo at 20 mg/kg [1, 2] [%]	change in vivo at 200 mg/kg [1, 2] [%]	change in vivo at 20 mg/kg [1, 3] [%]	change in vivo at 200 mg/kg [1, 3] [%]
201 to 203	CN(C)C1=NC(C2CCCCC2)N=C(N)N1 (stereo not shown) (as salt: toluenesulphonate) [Compound 34]	–	–	–	–
251 to 253	CN(C)C1=NC(C(F)(F)F)N=C(N)N1 (stereo not shown) (as salt: toluenesulphonate) [Compound 36]	–	–	–	–
159 to 161	CN(C)C1=NC(Cc2ccccc2)N=C(N)N1 (stereo not shown) (as salt: toluenesulphonate) [Compound 37]	–	–	–	–
194 to 196	CN(C)C1=NC(COc2ccccc2)N=C(N)N1 (stereo not shown) (as salt: toluenesulphonate) [Compound 41]	–	–	–	–
217 to 219	CN(C)C1=NC(C2CC=CCC2)N=C(N)N1 (stereo not shown) (as salt: toluenesulphonate) [Compound 45]	–	–	–	–
–	CC1N=C(N(C)C)NC(N(C)C)=N1 [Compound 2, 2,4-bisdimethylamino-3,6-dihydro-6-methyl-1,3,5-triazine hydrochloride]	-11	-12	-10	-12
–	CN(C)C1=NC(C)(C)N=C(N)N1 [Compound 3]	-10	-18	-8	-22
–	CN(C)C1=NC2(CCCCC2)N=C(N)N1 [Compound 4]	0	-20	-1	-10
138 to 140	CN(C)C1=NC(C)(CCCO)N=C(N)N1 (stereo not shown) [Compound 6]	–	–	–	–
–	CN(C)C1=NC(C)(CCCO)N=C(N)N1 (stereo not shown) [Compound 7]	-8	-10	-11	-16
–	CN(C)C1=NC(C)(C)N=C(N(C)C)N1 [Compound 15]	-8	-4	-9	-5
–	CN(C)C1=NC(C)(C)N=C(N2CCCC2)N1 [Compound 17]	-12	-8	-8	-14
–	CC(C)CCCC(C)[C@H]1CCC2C3CCC4CC5(CC[C@]4(C)C3CC[C@@]21C)N=C(N)NC(N(C)C)=N5 (stereo partly shown) [Compound 19]	-10	-4	-6	-14
–	CC1N=C(N(C)C)NC(N2CCCC2)=N1 (stereo not shown) [Compound 21]	-7	-21	-2	-24
–	CNC1=NC2(CCCCC2)N=C(N(C)C)N1 [Compound 22]	-23	-13	-16	0
–	CC(CCC(=O)O)[C@H]1CCC2C3C(C[C@H](O)[C@@]21C)[C@@]1(C)CCC2(CC1C[C@H]3O)N=C(N)NC(N(C)C)=N2 (stereo partly shown) [Compound 25]	-4	-7	-11	-6
–	C=CCNC1=NC(C)N=C(N(C)C)N1 (stereo not shown) [Compound 26]	-6	-14	-11	-9
–	CN(C)C1=NC2(CCC(OCc3ccccc3)CC2)N=C(N)N1 (stereo not shown) [Compound 27]	-14	-12	-9	-13
–	CN(C)C1=NC2(CCC(O)CC2)N=C(N)N1 (stereo not shown) [Compound 28]	-4	-4	-1	-13
–	CN(C)C1=NC2(CCCC2)N=C(N)N1 [Compound 31]	-5	-3	-11	-15
–	CCCC1N=C(N)NC(N(C)C)=N1 (stereo not shown) [Compound 32]	2	-22	0	-18
–	CN1CCC2(CC1)N=C(N)NC(N(C)C)=N2 [Compound 39]	-6	-4	-6	-7
–	CN(C)C1=NC(C(C)(C)C)N=C(N)N1 (stereo not shown) [Compound 42]	-5	-26	-4	-17
–	CC(C)C1N=C(N)NC(N(C)C)=N1 (stereo not shown) [Compound 44]	-7	-22	-6	-25

Compound	melting point [°C]	change in vivo at 20 mg/kg [1, 2] [%]	change in vivo at 200 mg/kg [1, 2] [%]	change in vivo at 20 mg/kg [1, 3] [%]	change in vivo at 200 mg/kg [1, 3] [%]
CC(C)CCCC(C)[C@H]1CCC2C3CCC4CC5(CC[C@]4(C)C3CC[C@@]21C)N=C(N)NC(N(C)C)=N5 (stereo partly shown) (as salt: HCl) [Compound 19]	> 260	–	–	–	–
CC(CCC(=O)O)[C@H]1CCC2C3C(C[C@H](O)[C@@]21C)[C@@]1(C)CCC2(CC1C[C@H]3O)N=C(N)NC(N(C)C)=N2 (stereo partly shown) (as salt: HCl) [Compound 25]	> 260	–	–	–	–
CN1CCC2(CC1)N=C(N)NC(N(C)C)=N2 (as salt: HCl) [Compound 39]	> 260	–	–	–	–
